Values quoted from earlier work as cited in patent publication US10293050B2, “Macrolide dosage forms” (Micell Technologies, Inc., priority 2010, dated 2019).

Experiments:
[1] = not given; remark: listed apart in the source
[2] = not given; remark: listed apart in the source

bioavailability (Rapamune oral tablets or solution): < 14%
hepatic biotransformation (in vivo): extensive hepatic biotransformation
blood concentrations (once daily oral dosing, immunosuppressive dose 2 or 5 mg daily): 6 to 50 ng/mL
aqueous solubility [1]: poor aqueous solubility
protein binding [2]: high protein binding
Compound: CO[C@H]1C[C@@H]2CC[C@@H](C)[C@@](O)(O2)C(=O)C(=O)N2CCCC[C@H]2C(=O)O[C@H]([C@H](C)C[C@@H]2CC[C@@H](O)[C@H](OC)C2)CC(=O)[C@H](C)/C=C(\C)[C@@H](O)[C@@H](OC)C(=O)[C@H](C)C[C@H](C)/C=C/C=C/C=C/1C [Rapamycin]
